“And” between values parts separate entries of the source, which are not always exact repeats. Equal entries are not always repeated.
Key:
Format in all cases: in vivo
[1] = tested on: Chinese sprangletop, Leptochloa chinensis; experiment: Field trial in rice, foliar post-emergence visual weed control: Chinese sprangletop; details: LEFCH
Procedure: (§1) Field trials were conducted in Taiwan, China and Colombia with applications made in the area of naturally occurring weed populations. All treatments were applied using a randomized complete block trial design, with 3 to 4 replications per treatment. Plot size varied and was 1-6 meters×2-12 meters (width×length). Rice was seeded into the plots, and the rice crop was maintained as a normal commercial crop with appropriate fertilizer and maintenance treatments as needed. Rice size at application varied from the 2 to 4 leaf stage, and weeds were at the 2 to 5 leaf stage. All treatments were foliar applied as post-emergence treatments using backpack sprayers with compressed air or carbon dioxide (CO2) propellant. Spray pressure varied from 25 to 35 pounds per square inch (psi). Spray nozzles used were flat fan, with 1 to 4 nozzle booms used to apply from 200 to 450 L/ha of water as spray diluent. All treatments were mixed in water at appropriately formulated product rates to achieve the desired rates as shown based on a unit area of application (hectare). Commercially available products were used to make all applications, consisting of FENCER® 250D and BENGALA® 250D (25 grams active ingredient per liter (g ai/L) penoxsulam in an oil dispersion formulation); GALLANT™ SUPER and VERDICT™ SUPER EC (108 g ai/L haloxyfop-R-methyl in an emulsifiable concentrate formulation); GULLIVER® (500 grams active ingredient per kilograms (g ai/kg) WP (wettable powder)) and NOMINEE® SL (100 g ai/L bispyribac-sodium wettable powder).
(§2) Treatments consisted of haloxyfop-R-methyl and an ALS mode of action herbicide (penoxsulam, bispyribac-sodium, bensulfuron-methyl, or azimsulfuron), applied alone or in combination.
(§3) The treated plots and control plots were rated blind at various intervals after application. Ratings were based on a scale of 0-100%, as discussed above, wherein 0% indicates complete growth of the undesired vegetation and 100% indicates complete prevention of the undesired vegetation.
(§4) Colby's equation was used to determine the herbicidal effects expected from the mixtures, as described above. The results were measured at the evaluation intervals provided in Tables 1-5 after the first application of the compositions. […] The combinations tested, application rates and ratios employed, plant species tested, and results are included in Tables 1-5 below.
(§5) Colby's equation was used to determine the herbicidal effects expected from the mixtures (S. R. Colby, Calculating Synergistic and Antagonistic Responses of Herbicide Combinations, WEEDS 15, p. 22 (1967)). A t-test (alpha=0.05) between Colby predictions and observed combinations was used to test for significant differences indicating synergy or antagonism using replicate data. The results presented in Tables 1-5 were significant according to the described criteria.

[2] = tested on: barnyardgrass, Echinochloa crus-galli; experiment: Field trial in rice, foliar post-emergence visual weed control: barnyardgrass; details: ECHCG
Procedure: as §1, §2, §3, §4, §5

[3] = tested on: small flower flatsedge, Cyperus difformis; experiment: Field trial in rice, foliar post-emergence visual weed control: small flower flatsedge; details: CYPDI; for % Visual Weed Control: 7DAA; for Mean % weed control: 14DAA
Procedure: as §1, §2, §3, §4, §5

[4] = tested on: monochoria, Monochoria vaginalis; experiment: Field trial in rice, foliar post-emergence visual weed control: monochoria; details: MOOVA, 7DAA
Procedure: as §1, with “Commercially available products were used to make all applications, consisting of FENCER® 250D and BENGALA® 250D (25 grams active ingredient per liter (g ai/L) penoxsulam in an oil dispersion formulation); GALLANT™ SUPER and VERDICT™ SUPER EC (108 g ai/L haloxyfop-R-methyl in an emulsifiable concentrate formulation); GULLIVER® (500 grams active ingredient per kilograms (g ai/kg) WP (wettable powder)) and NOMINEE® SL (100 g ai/L bispyribac-sodium wettable powder).” left out
Colby's equation was used to determine the herbicidal effects expected from the mixtures, as described above. The results were measured at the evaluation intervals provided in Tables 1-5 after the first application of the compositions. […]

[5] = tested on: crabgrass, Digitaria horizontalis; experiment: Field trial in rice, foliar post-emergence visual weed control: crabgrass; details: DIGHO
Procedure: as §1, §2, §3, §4, §5

[6] = tested on: itch grass, Rottboellia exaltata; experiment: Field trial in rice, foliar post-emergence visual weed control: itch grass; details: ROOEX
Procedure: as §1, §2, §3, §4, §5

[7] = tested on: bullgrass, Eleusine indica; experiment: Field trial in rice, foliar post-emergence visual weed control: bullgrass; details: ELEIN, 7DAA
Procedure: as §1, §2, §3, §4
as §5, with “The results presented in Tables 1-5 were significant according to the described criteria.” left out

[8] = tested on: rice flatsedge, Cyperus iria; experiment: Field trial in rice, foliar post-emergence visual weed control: rice flatsedge; details: CYPIR
Procedure: as §1, §2, §3, §4, §5

COc1cc(OC)nc(NC(=O)NS(=O)(=O)c2c(-c3nnn(C)n3)cnn2C)n1 [Azimsulfuron, 1-(4,6-dimethoxypyrimidin-2-yl)-3-[1-methyl-4-(2-methyl-2H-tetrazol-5-yl)pyrazol-5-ylsulfonyl]urea]
Mean % weed control ([1]; 14DAA, 10 g ai/ha alone): 0.0%
Mean % weed control ([1]; 14DAA, 20 g ai/ha alone): 0.0%
Mean % weed control ([2]; 7DAA, 40 g ai/ha alone): 89.0%

COC(=O)c1ccccc1CS(=O)(=O)NC(=O)Nc1nc(OC)cc(OC)n1 [Bensulfuron-Methyl, bensulfuron-methyl]
% Visual Weed Control ([2]; 28DAA, 20 g ai/ha alone (Table 4)): 0%
% Visual Weed Control ([2]; 28DAA, 40 g ai/ha alone (Table 4)): 23%
% Visual Weed Control ([3]; 10 g ai/ha alone): 90%
% Visual Weed Control ([3]; 20 g ai/ha alone): 92%

COc1cc(OC)nc(Oc2cccc(Oc3nc(OC)cc(OC)n3)c2C(=O)O)n1 [Bispyribac-Sodium, bispyribac-sodium]
Mean % weed control ([2]; 7DAA, 20 g ai/ha alone): 53.3%
Mean % weed control ([2]; 7DAA, 40 g ai/ha alone): 76.7%
Mean % weed control ([2]; 14DAA, 20 g ai/ha alone): 35.0%
Mean % weed control ([2]; 28DAA, 20 g ai/ha alone): 20.0%
Mean % weed control ([2]; 28DAA, 40 g ai/ha alone): 88.3%

COC(=O)C(C)Oc1ccc(Oc2ncc(C(F)(F)F)cc2Cl)cc1 [Haloxyfop-methyl (R), haloxyfop-R-methyl]
Mean % weed control ([1]; 7DAA, 8 g ai/ha alone): 0.0%
Mean % weed control ([1]; 14DAA, 2 g ai/ha alone): 0.0%
Mean % weed control ([1]; 14DAA, 4 g ai/ha alone): 0.0%
Mean % weed control ([1]; 28DAA, 8 g ai/ha alone): 0.0%
Mean % weed control ([4]; 16 g ai/ha alone): 0.0%
Mean % weed control ([5]; 7DAA, 8 g ai/ha alone): 71.7%
Mean % weed control ([5]; 15DAA, 4 g ai/ha alone): 35.0%
Mean % weed control ([6]; 7DAA, 8 g ai/ha alone): 11.7%
Mean % weed control ([6]; 15DAA, 4 g ai/ha alone): 0.0%
Mean % weed control ([6]; 15DAA, 16 g ai/ha alone): 77.5%
Mean % weed control ([6]; 28DAA, 4 g ai/ha alone): 0.0%
Mean % weed control ([7]; 4 g ai/ha alone): 21.7%
Mean % weed control ([8]; 7DAA, 8 g ai/ha alone): 0.0%
Mean % weed control ([8]; 7DAA, 16 g ai/ha alone): 0.0%
Mean % weed control ([8]; 15DAA, 8 g ai/ha alone): 0.0%
Mean % weed control ([8]; 15DAA, 16 g ai/ha alone): 11.3%
Mean % weed control ([2]; 7DAA, 4 g ai/ha alone): 0.0%
Mean % weed control ([2]; 7DAA, 8 g ai/ha alone): 0.0%
Mean % weed control ([2]; 7DAA, 27 g ai/ha alone): 0.0%
Mean % weed control ([2]; 14DAA, 8 g ai/ha alone): 0.0%
Mean % weed control ([2]; 21DAA, 27 g ai/ha alone): 0.0%
Mean % weed control ([2]; 28DAA, 4 g ai/ha alone): 0.0%
% Visual Weed Control ([2]; 28DAA, 4 g ai/ha alone (Table 4)): 0%
Mean % weed control ([2]; 28DAA, 8 g ai/ha alone): 0.0% and 6.7%
% Visual Weed Control ([2]; 28DAA, 8 g ai/ha alone (Table 4)): 0%
Mean % weed control ([2]; 28DAA, 13.5 g ai/ha alone): 0.0%
Mean % weed control ([2]; 28DAA, 27 g ai/ha alone): 0.0%
% Visual Weed Control ([3]; 2 g ai/ha alone): 0%
% Visual Weed Control ([3]; 8 g ai/ha alone): 0%
Mean % weed control ([3]; 16 g ai/ha alone): 0.0%
Mean % weed control ([3]; 32 g ai/ha alone): 0.0%

COc1cnc(OC)n2nc(NS(=O)(=O)c3c(OCC(F)F)cccc3C(F)(F)F)nc12 [Penoxsulam]
Mean % weed control ([1]; 7DAA, 10 g ai/ha alone): 0.0%
Mean % weed control ([1]; 7DAA, 20 g ai/ha alone): 0.0%
Mean % weed control ([1]; 7DAA, 30 g ai/ha alone): 0.0%
Mean % weed control ([1]; 14DAA, 10 g ai/ha alone): 0.0%
Mean % weed control ([1]; 14DAA, 20 g ai/ha alone): 0.0%
Mean % weed control ([1]; 14DAA, 30 g ai/ha alone): 0.0%
Mean % weed control ([1]; 28DAA, 30 g ai/ha alone): 0.0%
Mean % weed control ([4]; 5 g ai/ha alone): 90.0%
Mean % weed control ([5]; 7DAA, 8 g ai/ha alone): 0.0%
Mean % weed control ([5]; 7DAA, 16 g ai/ha alone): 0.0%
Mean % weed control ([5]; 15DAA, 8 g ai/ha alone): 0.0%
Mean % weed control ([5]; 15DAA, 16 g ai/ha alone): 0.0%
Mean % weed control ([5]; 15DAA, 32 g ai/ha alone): 0.0%
Mean % weed control ([6]; 7DAA, 32 g ai/ha alone): 3.3%
Mean % weed control ([6]; 15DAA, 8 g ai/ha alone): 0.0%
Mean % weed control ([6]; 28DAA, 8 g ai/ha alone): 0.0%
Mean % weed control ([6]; 28DAA, 16 g ai/ha alone): 12.5%
Mean % weed control ([7]; 8 g ai/ha alone): 0.0%
Mean % weed control ([7]; 16 g ai/ha alone): 0.0%
Mean % weed control ([7]; 32 g ai/ha alone): 0.0%
Mean % weed control ([8]; 7DAA, 8 g ai/ha alone): 62.0%
Mean % weed control ([8]; 7DAA, 32 g ai/ha alone): 87.0%
Mean % weed control ([8]; 15DAA, 8 g ai/ha alone): 85.0%
Mean % weed control ([2]; 7DAA, 10 g ai/ha alone): 63.3%
Mean % weed control ([2]; 7DAA, 15 g ai/ha alone): 95.7%
Mean % weed control ([2]; 21DAA, 15 g ai/ha alone): 93.3%
Mean % weed control ([2]; 28DAA, 7.5 g ai/ha alone): 53.3%
Mean % weed control ([2]; 28DAA, 10 g ai/ha alone): 56.7%
Mean % weed control ([2]; 28DAA, 15 g ai/ha alone): 91.7%
Mean % weed control ([2]; 28DAA, 30 g ai/ha alone): 98.3%
Mean % weed control ([3]; 10 g ai/ha alone): 93.3%

From patent publication US10624342B2, “Synergistic weed control from applications of haloxyfop and ALS inhibitor herbicides” (priority 2014, dated 2020)
